For series [1] the following is noted: thiazide discontinuation before treatment; cited from earlier work.
Series [2] deals with T1, calcium-sensing receptor (CaSR) (Homo sapiens, UniProt P41180).
T1 construct: oral CLTX-305 (encaleret) in post-surgical hypoparathyroidism subjects; clinical safety and blood calcium endpoints
T1 sequence (P41180 20-1078): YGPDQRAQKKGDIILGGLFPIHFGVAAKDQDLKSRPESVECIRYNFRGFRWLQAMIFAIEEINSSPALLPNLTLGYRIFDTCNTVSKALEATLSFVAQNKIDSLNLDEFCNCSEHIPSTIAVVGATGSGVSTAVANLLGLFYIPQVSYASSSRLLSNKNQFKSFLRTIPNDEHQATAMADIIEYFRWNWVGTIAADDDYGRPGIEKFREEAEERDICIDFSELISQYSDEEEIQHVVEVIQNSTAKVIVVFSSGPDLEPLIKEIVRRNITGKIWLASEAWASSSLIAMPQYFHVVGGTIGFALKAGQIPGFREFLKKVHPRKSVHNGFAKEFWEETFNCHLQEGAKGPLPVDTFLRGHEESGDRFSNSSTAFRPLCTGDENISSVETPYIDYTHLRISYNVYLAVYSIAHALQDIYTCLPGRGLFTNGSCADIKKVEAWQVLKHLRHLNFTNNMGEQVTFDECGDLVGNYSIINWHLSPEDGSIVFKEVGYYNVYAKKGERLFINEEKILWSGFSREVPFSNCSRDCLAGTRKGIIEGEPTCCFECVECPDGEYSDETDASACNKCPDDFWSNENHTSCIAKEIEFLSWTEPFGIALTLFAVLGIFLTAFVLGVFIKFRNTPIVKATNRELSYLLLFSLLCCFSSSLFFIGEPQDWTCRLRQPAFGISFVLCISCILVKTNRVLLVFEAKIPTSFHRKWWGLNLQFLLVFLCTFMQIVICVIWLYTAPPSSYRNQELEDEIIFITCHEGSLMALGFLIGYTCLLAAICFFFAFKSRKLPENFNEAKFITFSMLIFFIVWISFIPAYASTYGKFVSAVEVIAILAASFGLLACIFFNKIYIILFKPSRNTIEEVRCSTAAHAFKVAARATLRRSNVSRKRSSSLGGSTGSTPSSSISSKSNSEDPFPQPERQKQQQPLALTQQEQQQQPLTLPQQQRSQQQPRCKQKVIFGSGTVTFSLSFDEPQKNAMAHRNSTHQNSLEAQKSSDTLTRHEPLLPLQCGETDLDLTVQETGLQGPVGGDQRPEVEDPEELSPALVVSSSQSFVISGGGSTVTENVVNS
The series can be described thus: Ongoing open-label phase 2 proof-of-principle study in women with post-surgical hypoparathyroidism (PSH), NCT05735015. Format: in vivo. The text has this: Title: Phase 2 study of the PTH-independent Effects of formula (I) (e.g., CLTX-305) on Mineral Homeostasis in subjects with post-surgical hypoparathyroidism (PSH).
Study Description: This will be a single-site, proof-of-principle, open-label study to explore the PTH-independent effects of formula (I) (e.g., CLTX-305) on calcium homeostasis in subjects with low or undetectable PTH levels as a result of neck surgery (PSH).
Primary Endpoint: Percent change in Fractional Excretion of Calcium (FECa) from baseline (Day −1) to the final day of treatment (Day 6 or the last measurement while on formula (I) (e.g., CLTX-305)). FECa calculated using fasting blood levels and spot urine collection.
Secondary Endpoints: Proportion of subjects who achieve a concomitant normal fasting blood calcium (albumin-corrected calcium >8.5 mg/dL) and a normal 24-hour urinary calcium level (<250 mg/24 hours for women, <300 mg/24 hours for men) on formula (I) (e.g., CLTX-305) at any point between day 1 and day 5.
• Change in blood iPTH comparing average baseline iPTH to average peak iPTH on formula (I) (e.g., CLTX-305). The average baseline iPTH will include all baseline iPTH levels from the screening visit, Day −1, and pre-dose on Day 1. The average peak iPTH will average the peak iPTH levels on every day the subject is on formula (I) (e.g., CLTX-305) (days 1 to 5). An increase in iPTH will be considered clinically significant if there is an increase both by 50% AND by more than […]. • Change in 1,25-(OH)2 Vitamin D on formula (I) (e.g., CLTX-305) comparing the maximal level prior to receiving calcitriol (On Days 3-5) to baseline (Average of Day 1 Pre-dose levels). Increase will be considered significant if there is an increase of more than 50%. Subjects who receive calcitriol prior to Day 3 will be excluded. • Percent change in Fractional Excretion of Calcium (FECa) from baseline […] to the final day of treatment (Day 6 or the last measurement while n encaleret). FECa calculated using fasting blood levels and spot urine collection. • Pharmacodynamic endpoints measured over 5 days of formula (I) (e.g., CLTX-305) therapy: • Blood iPTH—Absolute levels and change from baseline • Albumin-corrected blood calcium—Absolute levels and change from baseline • Ionized Calcium—Absolute levels and change from baseline • Urinary calcium clearance (fractional excretion and 24-hour total excretion)—Absolute levels and change from baseline • Serum levels of 1,25-(OH)2 Vitamin D—Absolute levels and change from baseline • Blood intact FGF23 (iFGF23) and C-terminal FGF23 (cFGF23)—Absolute levels and change from baseline • Urine cAMP and citrate—Absolute levels and change from baseline • Blood bone resorption marker, collagen cross-linked C-telopeptide (CTx)—Absolute levels and change from baseline • Blood bone formation marker, blood procollagen type 1 N-propeptide (P1NP)—Absolute levels and change from baseline • Change in components of urine including: supersaturation, sodium, potassium, calcium, magnesium, chloride, phosphorus, sulfate, citrate excretion, oxalate, pH, uric acid, creatinine, osmolality, ammonium, urea nitrogen, protein catabolic rate • PK parameters such as maximum plasma concentration Cmax), time to maximum plasma concentration (tmax), apparent terminal half-life (t½) • Subgroup analysis of other primary, secondary, and tertiary endpoints
Intervention: CLTX-305 will be provided as an oral film-coated tablet. Each tablet contains 54 mg of formula (I) on a salt-free and anhydrous basis (i.e., 60 mg of CLTX-305). Subjects will receive 3 tablets twice a day (BID).
The investigational medicinal product (IMP), formula (I) (e.g., CLTX-305), will be provided as film-coated tablets containing the active ingredient formula (I) on a salt-free and anhydrous basis provided in 54 mg dosage strength. Subjects will receive active ingredient formula (I) 162 mg (i.e., 180 mg CLTX-305) (3 tablets) BID per protocol with water. […]

In another series the test system is osteoporosis. Conditions: late phase trials; postmenopausal women with osteoporosis; cited from earlier work.
Series [3] concerns calcium-sensing receptor (CaSR). Conditions: individuals with functioning parathyroid tissue; calcilytics (e.g., CLTX-305); cited from earlier work.

Turning to `NS(=O)(=O)c1cc(C2(O)NC(=O)c3ccccc32)ccc1Cl` (stereo not shown) [chlorthalidone], the 5 half-lives in series [1] was 300 h.
For the compound `NS(=O)(=O)c1cc2c(cc1Cl)NCNS2(=O)=O` [hydrochlorothiazide], the 5 half-lives in series [1] is 75 h.
Consider `Cc1cc(-c2ccccc2[C@@H](C)OC[C@H](O)CNC(C)(C)Cc2ccc(Cl)c(F)c2)ccc1C(=O)O` [CLTX-305], for which the “PTH after transient increase” value in series [2] (after the 30 minutes increase, baseline 7.4 pg/mL, n=4) was “returned to near baseline levels”. Besides, the “FECa, effect in words” value in series [2] (first four participants with PSH) is on record as “reduced FECa”. Besides, in series [2] (four women with PSH), the Serious adverse events entry is “no serious adverse events reported” and the “Treatment-related adverse events (AEs)” value is listed as “mild hypercalcemia causing headache in 1 participant”. Also, in series [2] (four women with PSH, 162 mg every 12 hours, up to 10 doses), the Bone turnover markers entry was “normal and did not change”. Also, the “PTH, transient increase” value in series [2] (mean (range), 30 minutes after the first dose, baseline 7.4 pg/mL (range 4.6-10.1; nl 15-65), n=4) was 13.0 (4.5-18.1) pg/mL. For the same compound, the “Decrease in fractional excretion of calcium (FECa)” value in series [2] (mean (range), fasting, 12 hours after last dose vs fasting baseline pre-dose, four women with PSH, CLTX-305 162 mg every 12 hours for up to 10 doses) is on record as 52% (34-78). Further, the Albumin-corrected blood calcium in series [2] (mean (range), fasting, 12 hours after last dose, baseline 8.4 mg/dL (range 8.1-8.6; nl 8.4-10.2), 162 mg every 12 hours, up to 10 doses, n=4) is reported as 9.3 (8.6-10.7) mg/dL. In addition, the Urinary calcium excretion in series [2] (mean (range), on treatment, baseline 348 mg/day (range 204-501; nl<250), 162 mg every 12 hours, up to 10 doses, n=4) is recorded as 169 (76-350) mg/day. The “Participants who discontinued calcium supplementation to maintain eucalcemia” value in series [2] (of four women with PSH, all received calcium supplementation initially) was 1 participant. In addition, the “Participants who required re-initiation of low-dose calcitriol to maintain eucalcemia” value in series [2] (of four women with PSH, calcitriol 0.25 mcg daily) is 3. Moreover, the “Normalization of urinary calcium excretion” value in series [2] (of four women with PSH, nl<250 mg/day) was found to be 3 participants. Further, in series [2] (one participant with mild hypercalcemia), the “24-hour urine calcium despite elevated blood calcium” value is on record as below 200 mg/day. In series [2] (one participant with mild hypercalcemia, calcium and calcitriol supplementation discontinued), the “Time for which blood calcium continued to be mildly elevated after the last dose” value was 60 h. For the same compound, the “Decrease in urinary calcium excretion in the fourth participant” value in series [2] (one participant without normalization, 162 mg every 12 hours, up to 10 doses) stood at 30%. In addition, in the series on osteoporosis, the “Bone mineral density (BMD) efficacy” value is recorded as “failed to demonstrate efficacy on endpoints of bone mineral density (BMD)”. Also, in series [3], the “Blood calcium levels, in words” value is given as “increased blood calcium levels”; the PTH secretion entry is reported as “increase PTH secretion”; the “Urinary calcium excretion, in words” value is on record as “decrease urinary calcium excretion”.
With `NS(=O)(=O)c1cc2c(cc1Cl)N=CNS2(=O)=O` [chlorothiazide], the 5 half-lives in series [1] is 10 h.

The values above are taken from patent publication US20260294857A1, “TREATMENT OF HYPOPARATHYROIDISM USING TRIPHENYL CALCILYTIC COMPOUNDS” (CALCILYTIX THERAPEUTICS, INC., priority 2023, published 2026).
